Test results as given in ChEMBL document CHEMBL4483862, “Open-source discovery of chemical leads for next-generation chemoprotective antimalarials” (2018).

Test system: Plasmodium berghei
Assay: Luciferase/luciferin-expressing antifolate-resistant parasites were used to infect a culture of HepG2 cells that were pre-incubated with compounds. Infected hepatocytes emit light due to the luciferase reaction. Assay results are presented as the percent inhibition of light emission compared to control. […]
Assay type: functional
Conditions: sporozoite; for IC90: read-out: LUCIFERASE INFECTION ASSAY - IC90

In the case of `O=C(Nc1ccccc1)Nc1cccc(C(F)(F)F)c1`, the IC50 (PBLUC_HILL_SLOPE 13.3, PBLUC_R_SQUARED 0.408, read-out: LUCIFERASE INFECTION ASSAY - IC50) is reported as 3.73 µM and the IC90 is reported as 4.4 µM.

For `C/C(=N\Nc1nc2ccccc2[nH]1)c1ccc(Cl)s1`, the IC50 (PBLUC_HILL_SLOPE 13.6, PBLUC_R_SQUARED 0.0664, read-out: LUCIFERASE INFECTION ASSAY - IC50) was 9.32 µM and the IC90 was greater than 10 µM.

In the case of `CN(Cc1ccccc1NC(=O)/C=C/c1cnn(-c2ccccc2)c1)C1CCCCC1`, the IC50 (PBLUC_HILL_SLOPE 13.5, PBLUC_R_SQUARED 0.731, read-out: LUCIFERASE INFECTION ASSAY - IC50) is reported as 8.68 µM and the IC90 is reported as greater than 10 µM.

Compound `OCc1ccccc1-c1cn2c(-c3ccc(Cl)cc3)cnc2cn1` has an IC50 (PBLUC_HILL_SLOPE 13.7, PBLUC_R_SQUARED 0.696, read-out: LUCIFERASE INFECTION ASSAY - IC50) of 3.25 µM and an IC90 of 3.81 µM.

In the case of `O=C1C=CC(=O)N1Cc1ccc2c(c1)OCO2`, the IC50 (PBLUC_HILL_SLOPE 13.6, PBLUC_R_SQUARED 0.619, read-out: LUCIFERASE INFECTION ASSAY - IC50) is reported as 11.4 µM and the IC90 is reported as 13.4 µM.

`Cc1cc2nc3n(c2cc1C)C1(Nc2ccccc2-3)C(=O)Nc2ccccc21` (configuration not stated) was tested, and the IC50 (PBLUC_HILL_SLOPE 13.5, PBLUC_R_SQUARED 0.192, read-out: LUCIFERASE INFECTION ASSAY - IC50) was 3.06 µM and the IC90 was 3.6 µM.

`CCn1c(SCc2csc(N(C(C)=O)c3cccc(C)c3)n2)nc2ccccc2c1=O` gave an IC50 (PBLUC_HILL_SLOPE 13.6, PBLUC_R_SQUARED 0.153, read-out: LUCIFERASE INFECTION ASSAY - IC50) greater than 10 µM and an IC90 greater than 10 µM.

Work on `CS(=O)(=O)Nc1cccc(-c2cn3c(-c4cccc(OC(F)(F)F)c4)cnc3cn2)c1` yielded an IC50 (PBLUC_HILL_SLOPE 13.3, PBLUC_R_SQUARED 0.233, read-out: LUCIFERASE INFECTION ASSAY - IC50) of 7.15 µM and an IC90 greater than 7.36 µM.

Work on `Cn1cnnc1Sc1ccc(/C=C/c2nc3ccccc3[nH]2)cc1[N+](=O)[O-]` yielded an IC50 (PBLUC_HILL_SLOPE 13.5, PBLUC_R_SQUARED 0.706, read-out: LUCIFERASE INFECTION ASSAY - IC50) of 3.33 µM and an IC90 of 3.92 µM.

In the case of `CNC(=O)c1ccc(CN(Cc2ccc(SC)cc2)Cc2ccco2)cc1`, the IC50 (PBLUC_HILL_SLOPE 13.4, PBLUC_R_SQUARED 0.501, read-out: LUCIFERASE INFECTION ASSAY - IC50) is reported as 0.624 µM and the IC90 is reported as 0.736 µM.

For `c1coc(CC2CCCC2Nc2c3ccccc3nc3ccccc23)c1` (configuration not stated), the IC50 (PBLUC_HILL_SLOPE 13.4, PBLUC_R_SQUARED 0.585, read-out: LUCIFERASE INFECTION ASSAY - IC50) was 1.04 µM and the IC90 was 1.22 µM.

`O=C(Cc1ccc(-c2ccccc2)cc1)Nc1nc(-c2ccccn2)cs1` was tested, and the IC50 (PBLUC_HILL_SLOPE 13.5, PBLUC_R_SQUARED 0.18, read-out: LUCIFERASE INFECTION ASSAY - IC50) was 9.2 µM and the IC90 was greater than 10 µM.

For `Cc1ccc(C(C)CCN2CCC3(CC2)C(=O)N(CCCc2ccncc2)C(=O)N3CCC(C)C)o1` (configuration not stated), the IC50 (PBLUC_HILL_SLOPE 13.4, PBLUC_R_SQUARED 0.376, read-out: LUCIFERASE INFECTION ASSAY - IC50) was 6.51 µM and the IC90 was greater than 6.67 µM.

`CCC(C)NC(=O)c1c(NC(=O)c2ccccc2)nc2ccc(C)cn12` (configuration not stated) showed an IC50 (PBLUC_HILL_SLOPE 13.5, PBLUC_R_SQUARED 0.225, read-out: LUCIFERASE INFECTION ASSAY - IC50) of 8.13 µM and an IC90 greater than 9.42 µM.

`Cc1cc(C)cc(NC(=O)C(NCC(C(C)C)N2CCOCC2)c2ccccc2)c1` (configuration not stated) showed an IC50 (PBLUC_HILL_SLOPE 13.4, 2.47, PBLUC_R_SQUARED 0.208, 0.834, read-out: LUCIFERASE INFECTION ASSAY - IC50) of 6.61 µM and an IC90 greater than 10 µM.

Work on `O=C(Nc1nc2ccccn2c1C(=O)NC1CCCCC1)c1ccc(F)c(F)c1` yielded an IC50 (PBLUC_HILL_SLOPE 13.4, PBLUC_R_SQUARED 0.0564, read-out: LUCIFERASE INFECTION ASSAY - IC50) of 7.37 µM and an IC90 greater than 8.28 µM.

Work on `Cc1cccc(C2CC(=O)Nc3[nH]c(-c4ccccc4)nc(=O)c32)c1` (configuration not stated) yielded an IC50 (PBLUC_HILL_SLOPE 13.4, PBLUC_R_SQUARED 0.0843, read-out: LUCIFERASE INFECTION ASSAY - IC50) of 9.49 µM and an IC90 greater than 9.96 µM.

With `Cc1cc(C)cc(C(O)c2nc(-c3cccc4ccccc34)c[nH]2)c1` (configuration not stated) the IC50 (PBLUC_HILL_SLOPE 13.8, PBLUC_R_SQUARED 0.489, read-out: LUCIFERASE INFECTION ASSAY - IC50) was 9.47 µM and the IC90 was greater than 10 µM.

`N#CC(C#N)=NNc1cc(F)c(Br)cc1F` gave an IC50 (PBLUC_HILL_SLOPE 13.7, PBLUC_R_SQUARED 0.287, read-out: LUCIFERASE INFECTION ASSAY - IC50) of 4.08 µM and an IC90 of 4.79 µM.

In the case of `COc1cc(OC)cc(C(=O)Nc2nc3ccccn3c2C(=O)NC2CCCC2)c1`, the IC50 (PBLUC_HILL_SLOPE 13.4, PBLUC_R_SQUARED 0.275, read-out: LUCIFERASE INFECTION ASSAY - IC50) is reported as 2.68 µM and the IC90 is reported as 3.15 µM.

`O=C(NCCSCc1ccc(Cl)cc1Cl)c1ccc(Cl)cc1` was tested, and the IC50 (PBLUC_HILL_SLOPE 13.4, PBLUC_R_SQUARED 0.244, read-out: LUCIFERASE INFECTION ASSAY - IC50) was 7.79 µM and the IC90 was greater than 8.81 µM.

For `CCCNC(=O)C(C)NC(=O)Nc1c(C)cccc1CC` (configuration not stated), the IC50 (PBLUC_HILL_SLOPE 13.4, PBLUC_R_SQUARED 0.0478, read-out: LUCIFERASE INFECTION ASSAY - IC50) was greater than 10 µM and the IC90 was greater than 10 µM.

With `CN(CC(=O)Nc1ccc(Cl)c(S(=O)(=O)N2CCCCC2)c1)C1CCc2ccccc21` (configuration not stated) the IC50 (PBLUC_HILL_SLOPE 13.6, PBLUC_R_SQUARED 0.21, read-out: LUCIFERASE INFECTION ASSAY - IC50) was 9.96 µM and the IC90 was greater than 10 µM.

With `O=S(=O)(NCC(Sc1nnc(Nc2ccccc2)s1)c1ccccc1)c1ccc(Cl)cc1` (configuration not stated) the IC50 (PBLUC_HILL_SLOPE 13.6, PBLUC_R_SQUARED 0.626, read-out: LUCIFERASE INFECTION ASSAY - IC50) was 9.35 µM and the IC90 was greater than 10 µM.

`CN(CCCc1[nH]nc(N)c1C#N)c1nc(-c2ccccn2)nc2sc(-c3ccccc3)cc12` showed an IC50 (PBLUC_HILL_SLOPE 13.8, PBLUC_R_SQUARED 0.648, read-out: LUCIFERASE INFECTION ASSAY - IC50) of 8.54 µM and an IC90 greater than 10 µM.

Work on `O=C(Nc1cccc(/C=C/c2ccc3cccc(O)c3n2)c1)C(F)(F)F` yielded an IC50 (PBLUC_HILL_SLOPE 13.5, PBLUC_R_SQUARED 0.34, read-out: LUCIFERASE INFECTION ASSAY - IC50) of 8.84 µM and an IC90 greater than 10 µM.

With `COc1cc(-c2cc(-c3ccccc3)cnc2N)ccc1O` the IC50 (PBLUC_HILL_SLOPE 13.8, PBLUC_R_SQUARED 0.558, read-out: LUCIFERASE INFECTION ASSAY - IC50) was 3.8 µM and the IC90 was 4.45 µM.

`CCC(C)(C)C1CCC2(CC1)NC(N)=Nc1nc3ccccc3n12` (configuration not stated) gave an IC50 (PBLUC_HILL_SLOPE 13.4, PBLUC_R_SQUARED 0.322, read-out: LUCIFERASE INFECTION ASSAY - IC50) of 2.81 µM and an IC90 of 3.31 µM.

With `CCCc1c(Cc2c(F)cccc2Cl)c(=O)oc2cc(OC(=O)COC)ccc12` the IC50 (PBLUC_HILL_SLOPE 13.6, PBLUC_R_SQUARED 0.599, read-out: LUCIFERASE INFECTION ASSAY - IC50) was 2.82 µM and the IC90 was 3.31 µM.

With `CN(C)C(=O)CNC(=O)c1cc(-c2ccccc2)nc2c1cnn2Cc1ccccc1Cl` the IC50 (PBLUC_HILL_SLOPE 13.5, PBLUC_R_SQUARED 0.27, read-out: LUCIFERASE INFECTION ASSAY - IC50) was 8.61 µM and the IC90 was greater than 10 µM.

Compound `COc1ccc(C(N)c2csc(NC(=O)Nc3ccccc3C(C)C)n2)cc1` (configuration not stated) has an IC50 (PBLUC_HILL_SLOPE 13.4, PBLUC_R_SQUARED 0.332, read-out: LUCIFERASE INFECTION ASSAY - IC50) of 2.57 µM and an IC90 of 3.02 µM.

`COc1ccccc1C(=O)Nc1nonc1-c1ccc2c(c1)CCCC2` gave an IC50 (PBLUC_HILL_SLOPE 13.6, PBLUC_R_SQUARED 0.311, read-out: LUCIFERASE INFECTION ASSAY - IC50) of 9.15 µM and an IC90 greater than 9.45 µM.

`OC(COc1ccccc1F)CN1CCN(Cc2csc3ccccc23)CC1` (configuration not stated) showed an IC50 (PBLUC_HILL_SLOPE 13.5, PBLUC_R_SQUARED 0.264, read-out: LUCIFERASE INFECTION ASSAY - IC50) greater than 10 µM and an IC90 greater than 10 µM.

Compound `O=C(c1cccs1)N1CCN(c2cc(C(F)(F)F)nc3ccccc23)CC1` has an IC50 (PBLUC_HILL_SLOPE 13.8, PBLUC_R_SQUARED 0.566, read-out: LUCIFERASE INFECTION ASSAY - IC50) of 2.84 µM and an IC90 of 3.33 µM.

In the case of `CC(C)Sc1nnc(CSc2nc3ccccc3s2)n1C`, the IC50 (PBLUC_HILL_SLOPE 13.4, PBLUC_R_SQUARED 0.563, read-out: LUCIFERASE INFECTION ASSAY - IC50) is reported as 3.35 µM and the IC90 is reported as 3.94 µM.

`CN1CCN(S(=O)(=O)c2ccc(N3CCC(c4nc5ccccc5s4)CC3)nc2)CC1` gave an IC50 (PBLUC_HILL_SLOPE 13.7, PBLUC_R_SQUARED 0.493, read-out: LUCIFERASE INFECTION ASSAY - IC50) of 9.47 µM and an IC90 greater than 10 µM.

In the case of `CC(Nc1ccc2c(c1)Cc1ccccc1-2)C(=O)N1CCCC1` (configuration not stated), the IC50 (PBLUC_HILL_SLOPE 13.8, PBLUC_R_SQUARED 0.568, read-out: LUCIFERASE INFECTION ASSAY - IC50) is reported as 8.56 µM and the IC90 is reported as greater than 10 µM.

With `Cc1cc2c(cc1C)C(NC(C)c1ccccc1)=NC(C)(C)C2` (configuration not stated) the IC50 (PBLUC_HILL_SLOPE 13.3, PBLUC_R_SQUARED 0.718, read-out: LUCIFERASE INFECTION ASSAY - IC50) was 3.64 µM and the IC90 was 4.29 µM.

`O=c1cc(CSc2nc3ccccc3s2)[nH]c2nc3ccccc3n12` gave an IC50 (PBLUC_HILL_SLOPE 13.4, PBLUC_R_SQUARED 0.218, read-out: LUCIFERASE INFECTION ASSAY - IC50) of 2.97 µM and an IC90 of 3.5 µM.

For `COc1ccc(S(=O)(=O)N2CCc3ccccc32)cc1C(=O)Oc1c(Cl)cc(Cl)c2ccc(C)nc12`, the IC50 (PBLUC_HILL_SLOPE 13.5, PBLUC_R_SQUARED 0.253, read-out: LUCIFERASE INFECTION ASSAY - IC50) was greater than 10 µM and the IC90 was greater than 10 µM.

`O=C1C=CC(=O)N1c1cccc(Br)c1` was tested, and the IC50 (PBLUC_HILL_SLOPE 13.6, PBLUC_R_SQUARED 0.314, read-out: LUCIFERASE INFECTION ASSAY - IC50) was 12.9 µM and the IC90 was greater than 13.1 µM.
